The experiment concerns BDF1 mice, P388 leukemia ip, median survival T/C. Briefly: NCI In Vivo Anticancer Drug Screen. Data for tumor model P388 Leukemia (intraperitoneal) in B6D2F1 (BDF1) mice. Conditions: endpoint: median survival time, higher = longer survival. An outline of the steps: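 Reported as T/C, where T is the survival measurement in dosed animals and C the same measurement in vehicle controls.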

The mark [1] stands for this setting: dose: 25.0 mg/kg/injection, schedule: Q01DX009 (ip), vehicle: saline.
Setting [2] is: dose: 50.0 mg/kg/injection, schedule: Q04DX003 (ip), vehicle: saline.
Where [3] appears, read: dose: 100.0 mg/kg/injection, schedule: Q04DX003 (ip), vehicle: saline.
Where [4] appears, read: dose: 50.0 mg/kg/injection, schedule: Q01DX009 (ip), vehicle: saline with Tween-80.
[5] abbreviates: dose: 100.0 mg/kg/injection, schedule: Q01DX009 (ip), vehicle: saline with Tween-80.
[6] abbreviates: dose: 200.0 mg/kg/injection, schedule: Q01DX009 (ip), vehicle: saline with Tween-80.
The mark [7] stands for this setting: dose: 100.0 mg/kg/injection, schedule: Q04DX003 (ip), vehicle: Klucel (hydroxypropylcellulose) (HPC).
[8] abbreviates: dose: 200.0 mg/kg/injection, schedule: Q04DX003 (ip), vehicle: Klucel (hydroxypropylcellulose) (HPC).
[9] abbreviates: dose: 100.0 mg/kg/injection, schedule: Q01DX009 (ip), vehicle: Klucel (hydroxypropylcellulose) (HPC).
[10] abbreviates: dose: 200.0 mg/kg/injection, schedule: Q01DX009 (ip), vehicle: Klucel (hydroxypropylcellulose) (HPC).
Setting [11] is: dose: 400.0 mg/kg/injection, schedule: Q01DX009 (ip), vehicle: Klucel (hydroxypropylcellulose) (HPC).

Where “and” joins values, the source holds several entries; their conditions need not be identical. Identical values can stand only once. Toxic doses and inconclusive results are not listed. Non-standard residues stand in square brackets, D forms with d. Residues, ends and D or L forms follow the SMILES beside them. ξ: configuration not given here. *: point of attachment. Boc = CC(C)(C)OC(=O)*; ξP = O=C(O)C1CCCN1

For the molecule `CCC[P+](c1ccccc1)(c1ccccc1)c1ccccc1`, the T/C was 111 % of control (dose: 2.0 mg/kg/injection, schedule: Q01DX009 (ip), vehicle: saline); 115 % of control (dose: 4.0 mg/kg/injection, schedule: Q01DX009 (ip), vehicle: saline); 123 % of control (dose: 8.0 mg/kg/injection, schedule: Q01DX009 (ip), vehicle: saline).

As to `O=[N+]([O-])c1cc(C(F)(F)F)ccc1/C=C/c1ccccc1Br`, the T/C (dose: 75.0 mg/kg/injection, schedule: Q04DX003 (ip), vehicle: saline with Tween-80) is 86 % of control; the T/C (dose: 150.0 mg/kg/injection, schedule: Q04DX003 (ip), vehicle: saline with Tween-80) is 90 % of control; the T/C (dose: 300.0 mg/kg/injection, schedule: Q04DX003 (ip), vehicle: saline with Tween-80) is 100 % of control.

Regarding `Nc1ccn(CC(=O)c2ccco2)c(=O)n1`, the T/C by setting is: (dose: 6.25 mg/kg/injection, schedule: Q01DX009 (ip), vehicle: saline) 109 % of control; (dose: 12.5 mg/kg/injection, schedule: Q01DX009 (ip), vehicle: saline) 95 % of control; under setting [1], 95 % of control and 109 % of control; (dose: 50.0 mg/kg/injection, schedule: Q01DX009 (ip), vehicle: saline) 86 % of control; under setting [2], 105 % of control; under setting [3], 105 % of control.

For `CC(=O)N1C2=CCCC3CCCCC23c2ccccc21` (stereo unspecified), the T/C reads like this: under setting [4], 88 % of control and 109 % of control; under setting [5], 102 % of control and 104 % of control; under setting [6], 93 % of control; (dose: 400.0 mg/kg/injection, schedule: Q01DX009 (ip), vehicle: saline with Tween-80) 112 % of control.

As to `CCCn1c2nc(=O)n(C)c(=O)c-2[n+]([O-])c2ccccc21`, the T/C reads like this: (dose: 6.25 mg/kg/injection, schedule: Q01DX001 (ip), vehicle: saline with Tween-80) 101 % of control; (dose: 12.5 mg/kg/injection, schedule: Q01DX001 (ip), vehicle: saline with Tween-80) 99 % of control.

Regarding `C(=NC(c1ccccc1)(c1ccccc1)c1ccccc1)=NC(c1ccccc1)(c1ccccc1)c1ccccc1`, the T/C is, setting by setting: (dose: 12.5 mg/kg/injection, schedule: Q01DX009 (ip), vehicle: gum acacia) 87 % of control; (dose: 25.0 mg/kg/injection, schedule: Q01DX009 (ip), vehicle: gum acacia) 100 % of control; (dose: 50.0 mg/kg/injection, schedule: Q01DX009 (ip), vehicle: gum acacia) 95 % of control; (dose: 100.0 mg/kg/injection, schedule: Q01DX009 (ip), vehicle: gum acacia) 88 % of control; (dose: 100.0 mg/kg/injection, schedule: Q04DX003 (ip), vehicle: gum acacia) 100 % of control; (dose: 200.0 mg/kg/injection, schedule: Q01DX009 (ip), vehicle: gum acacia) 88 % of control. The T/C (dose: 200.0 mg/kg/injection, schedule: Q04DX003 (ip), vehicle: gum acacia) is 91 % of control.

As to `O=C1CC2c3ccccc3C1C1C(=O)OC(=O)C21` (stereo unspecified), the T/C reads like this: under setting [7], 104 % of control; under setting [8], 90 % of control.

For the molecule `COC(=O)CNC(=O)C1CCCN1C(=O)OC(C)(C)C` (stereo unspecified) (Boc-[ξP]-Gly-OMe), the T/C is 100 % of control under setting [3]; 105 % of control (dose: 200.0 mg/kg/injection, schedule: Q04DX003 (ip), vehicle: saline); 95 % of control (dose: 400.0 mg/kg/injection, schedule: Q04DX003 (ip), vehicle: saline).

For the molecule `CC(C(=O)O)[Se](=O)O` (stereo unspecified), the T/C reads like this: (dose: 12.5 mg/kg/injection, schedule: Q04DX003 (ip), vehicle: saline) 101 % of control; (dose: 25.0 mg/kg/injection, schedule: Q04DX003 (ip), vehicle: saline) 101 % of control; under setting [2], 100 % of control.

As to `O=C1c2ccccc2C(=O)c2cc3c(cc21)CCCC3`, the T/C by setting is: (dose: 50.0 mg/kg/injection, schedule: Q01DX009 (ip), vehicle: water) 94 % of control; (dose: 100.0 mg/kg/injection, schedule: Q01DX009 (ip), vehicle: water) 87 % of control; (dose: 400.0 mg/kg/injection, schedule: Q01DX009 (ip), vehicle: water) 96 % of control; (dose: 800.0 mg/kg/injection, schedule: Q01DX009 (ip), vehicle: water) 107 % of control.

`CC(=O)CC(=O)NCCCN1CCCCC1`: the T/C reads like this: (dose: 12.5 mg/kg/injection, schedule: Q01DX009 (ip), vehicle: saline with Tween-80) 92 % of control; (dose: 25.0 mg/kg/injection, schedule: Q01DX009 (ip), vehicle: saline with Tween-80) 88 % of control; (dose: 25.0 mg/kg/injection, schedule: Q04DX003 (ip), vehicle: saline with Tween-80) 96 % of control; (dose: 50.0 mg/kg/injection, schedule: Q04DX003 (ip), vehicle: saline with Tween-80) 88 % of control.

Regarding `c1ccc2c(c1)C1c3cccc[n+]3C2CC1n1c2ccccc2c2ccccc21` (stereo unspecified), the T/C is 100 % of control (dose: 6.25 mg/kg/injection, schedule: Q01DX009 (ip), vehicle: Klucel (hydroxypropylcellulose) (HPC)); 100 % of control and 108 % of control (dose: 12.5 mg/kg/injection, schedule: Q01DX009 (ip), vehicle: Klucel (hydroxypropylcellulose) (HPC)); 100 % of control (dose: 16.0 mg/kg/injection, schedule: Q01DX009 (ip), vehicle: Klucel (hydroxypropylcellulose) (HPC)); 87 % of control and 113 % of control (dose: 25.0 mg/kg/injection, schedule: Q01DX009 (ip), vehicle: Klucel (hydroxypropylcellulose) (HPC)); 91 % of control (dose: 50.0 mg/kg/injection, schedule: Q01DX009 (ip), vehicle: Klucel (hydroxypropylcellulose) (HPC)); 100 % of control under setting [9].

For `CCCn1c(=S)[nH]c2ccccc2c1=O`, the T/C runs as follows: (dose: 100.0 mg/kg/injection, schedule: Q01DX001 (ip), vehicle: Klucel (hydroxypropylcellulose) (HPC)) 100 % of control; (dose: 200.0 mg/kg/injection, schedule: Q01DX001 (ip), vehicle: Klucel (hydroxypropylcellulose) (HPC)) 100 % of control; (dose: 400.0 mg/kg/injection, schedule: Q01DX001 (ip), vehicle: Klucel (hydroxypropylcellulose) (HPC)) 100 % of control.

As to `CC(C)N(CC#N)C(C)C`, the T/C is 91 % of control (dose: 0.25 mg/kg/injection, schedule: Q04DX003 (ip), vehicle: saline with Tween-80) and 101 % of control (dose: 0.5 mg/kg/injection, schedule: Q04DX003 (ip), vehicle: saline with Tween-80).

As to `COc1ccc2c(c1C)CCC1(CO)C(C(C)=O)=CCC21` (stereo unspecified), the T/C was 109 % of control under setting [9]; 100 % of control under setting [7]; 95 % of control under setting [10]; 100 % of control under setting [8]; 100 % of control under setting [11]; 100 % of control (dose: 400.0 mg/kg/injection, schedule: Q04DX003 (ip), vehicle: Klucel (hydroxypropylcellulose) (HPC)).

Regarding `S=P(N1CCCCCC1)(N1CC1)N1CC1`, the T/C by setting is: (dose: 16.5 mg/kg/injection, schedule: Q01DX009 (ip), vehicle: saline) 154 % of control; under setting [1], 195 % of control; (dose: 37.5 mg/kg/injection, schedule: Q01DX009 (ip), vehicle: saline) 122 % of control.

As to `COc1ccc2cc(OC)ccc2c1`, the T/C (dose: 100.0 mg/kg/injection, schedule: Q01DX001 (ip), vehicle: saline sonified) was 100 % of control; the T/C (dose: 200.0 mg/kg/injection, schedule: Q01DX001 (ip), vehicle: saline sonified) was 100 % of control; the T/C (dose: 400.0 mg/kg/injection, schedule: Q01DX001 (ip), vehicle: saline sonified) was 100 % of control.

Consider `CCCCCC[N+]1(C)CC2C3C=CC(C3)C2C1` (stereo unspecified), for which the T/C (dose: 75.0 mg/kg/injection, schedule: Q01DX009 (ip), vehicle: saline) was 90 % of control.

Regarding `NS(=O)(=O)c1ccc(NC(=O)c2ccccc2C(=O)O)cc1`, the T/C by setting is: under setting [9], 95 % of control; under setting [10], 100 % of control; under setting [11], 105 % of control.

With `C=Cn1ccc(=O)[nH]c1=O` (tested in a mixture with another compound), the T/C is 86 % of control under setting [4], 121 % of control under setting [5] and 93 % of control under setting [6].

The record behind these values is PubChem BioAssay AID328 (DTP/NCI, 2004).
